Experimental data: patent US20090203731A1, “TREATMENT OF DEPRESSION AND OTHER AFFECTIVE DISORDERS” (H. Lundbeck A/S, priority 2003, published 2009)

What was measured:
Type in all cases: in vivo
[1] = system: rat chronic mild stress (CMS) model of depression; test: rat chronic mild stress (CMS) model of depression, sucrose consumption; conditions: male Wistar rats
From the text: The rat chronic mild stress (CMS) model of depression has a high degree of predictive validity for antidepressant activity (Willner, 1997, Psychopharmacol. 134, 319-329). Furthermore, the procedure is an appropriate model to study onset of antidepressant action in animals (C. Sánchez et al., 2003, Behavioural Pharmacology 14, 465-470). The principle of the model is based on the relation between stress and affective disorders. Rats exposed to chronic stress will show a reduced sensitivity to rewards (e.g. a palatable sucrose solution).
Male Wistar rats (Gorzkowska, Warsaw) were brought into the laboratory two months before the start of the experiment. The animals were singly housed with food and water freely available, and maintained on a 12-h light/dark cycle at a temperature of 22±2° C., except as described below.
The animals were first trained to consume a 1% sucrose solution; training consisted of eight 1 h baseline tests in which sucrose was presented, in the home cage, following 14 h food and water deprivation; intake was measured by weighing pre-weighed bottles containing the sucrose solution, at the end of the test. Subsequently, sucrose consumption was monitored, under similar conditions, throughout the whole experiment. […] Body weights were assessed a baseline and by the end of drug treatment.

[2] = system: forced swimming-induced immobility in mice; test: mouse forced swim test (inhibition of forced swimming-induced immobility); conditions: male NMRI/BOM mice
From the text: (§1) In order to modulate the activity of systems responsible for antidepressant activity, we have characterized the interaction between gaboxadol and escitalopram (an SSRI) in a behavioral model of serotonin reuptake inhibition, i.e. the mouse 5-HTP potentiation test, and a model that is predictive of antidepressant activity, i.e. the mouse forced swim test (cf. C. Sánchez et al., 2003, Psychopharmacology 167, 353-362).
(§2) Male NMRI/BOM mice (18-25 g; Bomholtgaard, Denmark) were used. The mice were housed in plastic cages (35×30×12 cm), 10 animals in each, and habituated to the animal facilities for at least a week before test. The room temperature (21±2° C.), relative humidity (55±5%), and air exchange (16 times per h) were automatically controlled. The animals had free access to commercial food pellets and tap water before test.
A mouse that is forced to swim in a spatially constrained container will exert a characteristic immobile posture. Pretreatment with an antidepressant will counteract this effect. The test was conducted as described in detail by Sánchez and Meier (Psychopharmacol. 129, 197-205, 1997). Briefly, a fully automated test system with 6 swim units (2000 ml glass jars filled with 1200 ml soiled water (23-25° C.) in which a mouse had been placed previously) was used. […] The accumulated duration of immobility was measured during the last 3 min. […]

[3] = system: 5-HTP-induced behaviour in mice; test: mouse 5-HTP potentiation test (potentiation of 5-HTP-induced behaviour); conditions: gaboxadol 2.5 mg/kg with escitalopram 0.5 to 0.025 mg/kg, s.c., 30 min before i.v. 5-HTP 100 mg/kg, male NMRI/BOM mice
From the text: as §1, §2
The test procedure for studies in mice is described in detail by Hyttel et al., 1992, J. Neural. Transm. Gen. Sect. 88, 157-60. Briefly, 30 min after subcutaneous (s.c.) administration of test compound, mice were given intravenous (i.v.) 5-HTP (100 mg/kg). Thereafter the animals were evaluated in their home cage during a 15-min observation period with respect to stereotypy (lateral head movements), tremor, and hind limb abduction. One point was given for each symptom being present. A total of 8-16 mice were used per dose. Inhibition of forced swimming-induced immobility.

## Oc1noc2c1CCNC2 [gaboxadol, Gaboxadol]
[1]; 2.5 mg/kg per day, intraperitoneal
  effect in the rat chronic mild stress model at 2.5 mg/kg per day: clear and significant effect
[1]; twice daily intraperitoneal injections for five weeks
  anti-depressant-like effect in the rat chronic mild stress model: significant anti-depressant-like effect
[2]; gaboxadol 2.5 mg/kg alone, 30 min before test
  activity by itself in the forced swim test: not active by itself
[2]; gaboxadol 2.5 mg/kg with escitalopram 2.5 and 5 mg/kg
  potentiation of the antidepressant-like effect of escitalopram in the forced swim test: potentiated the antidepressant-like effect of escitalopram (2.5 and 5 mg/kg) significantly
[3]
  potentiation of the acute effects of escitalopram in the 5-HTP potentiation test: strongly potentiated the acute effects of escitalopram
